Reference: patent US20080219962A1, “Method to Enhance the Bone Formation Activity of Bmp by Runx2 Acetylation” (BIORUNX CO., LTD., priority 2005, published 2008)
Numbered stars: 1 amine (or outer) side, 2 acyl side, 3 side chain; on linkers, the order of the positions; unused ones are H or OH. Bridge positions count the residues as written; N and C are the ends. Square brackets hold non-standard residues; d marks the D form. Peptide text beside a SMILES is read from it. I, II: the chains in the order shown. ξ: configuration not given here. hNle(7-SH) = O=C([C@H](CCCCCS[*:3])N[*:1])[*:2]; Ile(3ξ) = CCC(C)[C@H](N)C(=O)O

How the values were obtained:
Runx2 = Runx2 acetylation: immunoprecipitation with anti-acetyl-lysine antibody, Western blot with anti-myc antibody; type: cell-based; conditions: C2C12 cells transfected with myc-tagged Runx2, treated with HDAC inhibitor; FIG. 13
Protocol: Following transfection, the C2C12 and 293 cells were lysed in ice-cold cell lysis buffer (25 mM HEPES (pH 7.5), 150 mM NaCl, 1% NP-40, 0.25% Na deoxycholate, 10% glycerol, 25 mM NaF, 1 mM EDTA, 1 mM Na3VO4, 250 μM phenylmethylsulfonyl fluoride, 10 μg/ml leupeptin, 10 μg/ml aprotinin) and cleared by centrifugation. The resulting supernatants were immunoprecipitated with the appropriate primary and secondary antibodies, and protein A- or protein G-Sepharose beads (Amersham) for 4 hours. All incubations were conducted at 4° C. The Sepharose beads were washed extensively and bound proteins were separated using SDS-PAGE, and then transferred to PVDF membranes. The membranes were incubated with the appropriate antibodies, washed, and then incubated with horseradish peroxidase-coupled secondary antibodies. After washing, the reactive proteins were visualized with an enhanced chemiluminescence (ECL) reagent (Amersham Biosciences).
For HDAC inhibitor treatments, both C2C12 and 293 cells were cultured in fresh medium for 1 day following transfection, and then treated with the inhibitors (Tricostatin A (TSA), CHAP and SCOP) for 16 h, at the specified concentrations according to the methods of Komatsu et al (Cancer Res. 61:4459-4466, 2001) and Nishino et al (Nishino N. et al., Org. Lett. 5: 5079-5082, 2003).
The level of Runx2 acetylation might be controlled by a dynamic equilibrium between acetylation and deacetylation. […] In the present invention, inhibitors of histone diacetylase (HDAC) deacetylating most proteins were treated to Runx2. Particularly, C2C12 cells, transfected with myc-tagged Runx2, were treated with HDAC inhibitors such as SCOP304, SCOP152, CHAP27, SAHA, MS-275, FK228, TrafoxinB and Oxamflatin according to the method of Komatsu et al (Cancer Res. 61:4459-4466, 2001). Immunoprecipitation was performed using anti-acetyl-lysine antibody, followed by Western blot analysis using anti-myc antibody.

[1] = test system: Runx2 transcriptional activity; experiment: pGL3-TβRE-luc luciferase reporter assay in 293 cells over-expressing Runx2; type: cell-based; conditions: 293 cells over-expressing Runx2 and pGL3-TβRE-luc reporter; FIG. 16
Protocol: (§1) For luciferase assay, cells were plated on a 24-well plate one day before transfection, followed by co-transfection with luciferase reporter plasmid and numbers of Runx2 constructs. 36 hours after transfection, cells were recovered and luciferase and β-galactosidase activities were measured in cell lysate by using Luciferase Reporter Assay Kit (Promega) using luminometer according to the manufacturer's recommendations. The pCMVβ-Gal (beta-Galactosidase, Clontech Laboratory) plasmid was included as an internal control to determine the efficiency of transfection.
To examine whether HDAC inhibitors, increasing the level of Runx2 acetylation, could promote the Runx2 transcriptional activity, 293 cells over-expressing Runx2 and pGL3-TβRE-luc reporter were treated with each HDAC inhibitor. The transcriptional activity of Runx2 was evaluated by luciferase report assay, which was performed according to the manufacturer (Promega)'s instructions. As a result, HDAC inhibitors, Tubacin, SAHA, MS-275, Trafoxin B, Oxamflatin, CHAP27, CHAP31, SCOP152, SCOP304 and SCOP402, increased transcriptional activity of Runx2 (FIG. 16). From the result, it was confirmed that HDAC inhibitors not only increase the level of Runx2 acetylation but also increase the Runx2 transcriptional activity.

[2] = test system: C2C12 pluripotent mesenchymal precursor cells; experiment: Alkaline phosphatase (ALP) activity staining, early marker of osteoblast differentiation; type: cell-based; conditions: increasing inhibitor concentration in presence of low concentration of BMP-2 (30 ng/ml), FIG. 18
Protocol: Particularly, C2C12 pluripotent mesenchymal precursor cells were treated with each HDAC inhibitor and then fixed with 3.7% formaldehyde for 10 minutes, to which western blue substrate (Promega) was added to induce color development for 10 minutes. And alkaline phosphatase (ALP) activity, an early marker of osteoblast differentiation was measured by the active staining method (Katagiri et al., J. Cell Biol. Vol. 127, 1755-66, 1994). As a result, the treatment of HDAC inhibitors such as TSA, SAHA, MS-275, FK228, Oxamflatin, CHAP27, SCOP152, SCOP304 and SCOP402 caused increase of ALP activity (FIG. 18).

OC promoter = experiment: Osteocalcin (OC) promoter luciferase reporter assay in H1-127-21-2 cells; type: cell-based, mouse; conditions: H1-127-21-2 cells over-expressing pCS4-3Myc-Runx and pGL2-1050 OC-luc; FIG. 19
Description: Full-length Runx2 (SEQ. ID. No 2) labeled with Myc or HA was inserted into a vector to construct CMV promoter-derived mammalian expression vectors pCS4-3Myc and pCS4-3HA (Jin et al., J Biol Chem. Vol. 279, 29409-17, 2004, Ogawa et al., Proc Natl Acad Sci USA. 1993 Vol. 90, 6859-63.). Mutations affecting the Runx2 acetylation site were introduced by PCR (Michaels A. Innis et al., PCR protocols: a guide to method and applications, Qcademic Press, Inc., 1990) and cloned into the pCS4-3Myc vector. The BMP receptor 1 (BMPR1) and HA-p300 expression vectors were obtained from M. Ewen (Dana-Farber Cancer Institute, Harvard Medical School, Boston) (Genes Dev. Vol. 8, 869-84, 1994). The expression plasmids for the myc-HDAC series were cloned into pCS4-3Myc. The luciferase reporter plasmid, pGL3-TbRE, contains two copies of TbRE (originally identified in the immunoglobulin Cα promoter) (Lee, K. S., et al., Mol. Cell. Biol. 20:8783-8792, 2000; pGL3 is product of Promega). […]
as §1, with “The pCMVβ-Gal (beta-Galactosidase, Clontech Laboratory) plasmid was included as an internal control to determine the efficiency of transfection.” left out

[3] = test system: periosteal bone formation; experiment: Periosteal bone formation after hypodermic injection into mice calvarias, H&E histostaining; type: in vivo; conditions: 10 μl of 60 μM injected hypodermically into calvarias, two weeks, FIG. 22
Protocol: To confirm the effect of HDAC inhibitors on bone formation, the present inventors investigated the effect of CHAP27, SCOP402 and SCOP304 on periosteal bone formation in rodent. Particularly, 10 μl of HDAC inhibitors (60 μM) were hypodermically injected into mice calvarias (Zhao et al., J. Biol. Chem., 279, 12854-12859, 2004). Two weeks later, the mice were sacrificed, followed by hematoxyline & eosine histostaining (Cell Biology. Second edition, Edited by Julio E. Celis. Published by Academic Press, 1994).

Row | Compound | Runx2 acetylation (Runx2) | transcriptional activity of Runx2 (luciferase reporter) [1] | ALP activity [2] | OC promoter activation over the activation observed for Runx2 alone (OC promoter) | bone formation [3]
1 | Oxamflatin | increased | increased | increase | – | –
2 | C/C=C1\NC(=O)[C@H]2CSSCC/C=C/[C@H](CC(=O)N[C@H](C(C)C)C(=O)N2)OC(=O)[C@H](C(C)C)NC1=O [FK228] | increased | – | increase | – | –
3 | Nc1ccccc1NC(=O)c1ccc(CNC(=O)OCc2cccnc2)cc1 [MS-275, carbamate, [[4-[[(2-aminophenyl)amino]carbonyl]phenyl]methyl]-, 3-pyridinemethyl ester] | increased | increased | increase | – | –
4 | O=C(CCCCCCC(=O)Nc1ccccc1)NO [SAHA, octanediamide, N-hydroxy-N′-phenyl-] | increased | increased | increase | – | –
5 | CC(/C=C/C(=O)NO)=C\[C@@H](C)C(=O)c1ccc(N(C)C)cc1 [TSA, 2,4-heptadieneamide, 7-[4-(dimethylamino)phenyl]-N-hydroxy-4,6-dimethyl-7-oxo-, (2E,4E,6R)-] | – | – | increase | – | –
6 | cyclo(-L-Am7-D-Tyr(Me)-L-Ile-D-Pro-) [SCOP152] | increased | increased | increase | – | –
7 | O=C(CCCCCCC(=O)Nc1ccc([C@H]2O[C@@H](CSc3nc(-c4ccccc4)c(-c4ccccc4)o3)C[C@@H](c3ccc(CO)cc3)O2)cc1)NO [Tubacin] | – | increased | – | – | –
8 | CCC(C)[C@@H]1NC(=O)[C@H]2CCCN2C(=O)[C@H](CCCCCSSCCCCC[C@@H]2NC(=O)[C@H]3CCCN3C(=O)[C@H](C(C)CC)NC(=O)[C@@H](Cc3ccc(OC)cc3)NC2=O)NC(=O)[C@@H](Cc2ccc(OC)cc2)NC1=O (stereo partly drawn) [SCOP304, cyclo(L-Am7 (−)-D-Tyr(Me)-L-Ile-D-Pro)dimer] (I: cyclo([Ile(3ξ)][dP][hNle(7-SH)][dY](Me)) / II: cyclo([Ile(3ξ)][dY](Me)[hNle(7-SH)][dP]); disulfide I:3-II:3) | increased | increased | increase | 2-4 fold | remarkably enhanced
9 | cyclo(-L-Asu(NHOH)-D-Tyr(Me)-L-Ile-D-Pro-) [CHAP31] | – | increased | – | – | –
